Measured values published in patent US10081624B2, “Heterocyclic compound” (Takeda Pharmaceutical Company Limited, priority 2014, dated 2018).

What was measured:
[1] = target: T1, HDAC1 enzyme (Homo sapiens, UniProt Q13547); experiment: HDAC1 enzyme inhibitory assay (HDAC-Glo I/II Assay kit); format: biochemical; settings: 1 μM test compound; for inhibition at 1 µM: read-out: HDAC1 inhibitory rate (%) (1 μM)
T1 construct: prepared by transducing full length HDAC1 and HDAC6 genes into Sf-9 insect cells; GST; purchased SignalChem; host or cells: Sf-9 insect cells
Procedure: HDAC1 enzyme and HDAC6 enzyme each prepared by transducing full length HDAC1 and HDAC6 genes into Sf-9 insect cells and purifying by GST affinity column were purchased from SignalChem. Using these enzymes, HDAC1 and/or HDAC6 enzyme inhibitory activities of the compound of the present invention were evaluated. Enzymes were used after preserved at −70° C. HDAC1 or HDAC6 enzyme inhibitory activity of the compound of the present invention was measured using HDAC-Glo™ I/II Assay kit (Promega) according to the following experimental method. The test compound diluted with assay buffer (24 mM Tris-HCl (pH 7.5), 1 mM MgCl2, 0.35 mM KCl, 135 mM NaCl, 0.6 mM Glutathione, 0.01% Tween-20) was added to a 384-well plate by each 2 μL. Then, HDAC1 or HDAC6 enzyme solution diluted with assay buffer was added thereto by each 4 μL, and the plate was incubated at room temperature for 60 min. After incubated, HDAC substrate-Developer solution prepared according to Promega protocol attached to the assay kit was added to the 384-well plate by each 2 μL, and the enzyme reaction was started. After reacting at room temperature for 20 min, luminescence level was measured using plate reader Envision (PerkinElmer). The inhibitory activity of each compound was calculated as a relative activity value when luminescence level in wells without enzyme is considered as 100% inhibition.

[2] = target: T2, HDAC6 enzyme (Homo sapiens, UniProt Q9UBN7); experiment: HDAC6 enzyme inhibitory assay (HDAC-Glo I/II Assay kit); format: biochemical; settings: 1 μM test compound; for inhibition at 1 µM: read-out: HDAC6 inhibitory rate (%) (1 μM)
T2 construct: prepared by transducing full length HDAC1 and HDAC6 genes into Sf-9 insect cells; GST; purchased SignalChem; host or cells: Sf-9 insect cells
T2 sequence (Q9UBN7 1-1215): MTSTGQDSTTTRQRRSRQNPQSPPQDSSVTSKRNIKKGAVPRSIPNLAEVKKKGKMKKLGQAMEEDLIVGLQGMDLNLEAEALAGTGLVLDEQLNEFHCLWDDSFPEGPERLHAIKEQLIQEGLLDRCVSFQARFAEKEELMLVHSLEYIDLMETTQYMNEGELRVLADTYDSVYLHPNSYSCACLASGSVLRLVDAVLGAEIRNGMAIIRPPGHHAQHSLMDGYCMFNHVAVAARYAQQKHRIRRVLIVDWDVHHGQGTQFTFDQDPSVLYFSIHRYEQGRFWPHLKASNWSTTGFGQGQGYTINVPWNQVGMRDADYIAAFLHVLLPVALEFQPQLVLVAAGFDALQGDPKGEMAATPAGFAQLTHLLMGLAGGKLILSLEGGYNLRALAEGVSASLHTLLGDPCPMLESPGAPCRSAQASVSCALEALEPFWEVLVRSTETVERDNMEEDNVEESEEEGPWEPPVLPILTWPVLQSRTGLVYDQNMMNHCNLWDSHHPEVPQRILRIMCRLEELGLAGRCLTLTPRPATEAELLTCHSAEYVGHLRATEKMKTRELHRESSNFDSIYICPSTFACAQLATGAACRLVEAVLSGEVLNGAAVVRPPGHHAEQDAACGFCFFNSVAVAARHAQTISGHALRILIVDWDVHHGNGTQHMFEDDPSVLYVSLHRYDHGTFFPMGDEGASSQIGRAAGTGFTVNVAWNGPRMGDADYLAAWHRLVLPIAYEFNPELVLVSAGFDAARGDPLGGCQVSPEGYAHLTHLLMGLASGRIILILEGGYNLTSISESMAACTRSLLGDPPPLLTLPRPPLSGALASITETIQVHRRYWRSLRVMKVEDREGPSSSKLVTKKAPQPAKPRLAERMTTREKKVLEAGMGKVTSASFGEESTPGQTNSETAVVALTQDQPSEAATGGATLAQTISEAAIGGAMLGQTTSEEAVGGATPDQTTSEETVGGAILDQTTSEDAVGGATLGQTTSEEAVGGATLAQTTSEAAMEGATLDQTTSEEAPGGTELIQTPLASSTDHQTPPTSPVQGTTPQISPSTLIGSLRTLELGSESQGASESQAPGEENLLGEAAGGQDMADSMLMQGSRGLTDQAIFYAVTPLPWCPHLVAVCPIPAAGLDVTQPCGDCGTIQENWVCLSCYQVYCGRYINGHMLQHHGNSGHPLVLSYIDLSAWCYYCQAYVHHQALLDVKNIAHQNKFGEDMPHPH
Method in brief: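 Full-length GST-purified HDAC1 or HDAC6 (Sf-9 expressed) preincubated 60 min at room temperature with compound in Tris-HCl pH 7.5 buffer with glutathione and Tween-20. HDAC-Glo substrate-developer added, 20 min at room temperature, then luminescence read; inhibition relative to no-enzyme wells as 100%.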

T1 sequence (Q13547 whole entry): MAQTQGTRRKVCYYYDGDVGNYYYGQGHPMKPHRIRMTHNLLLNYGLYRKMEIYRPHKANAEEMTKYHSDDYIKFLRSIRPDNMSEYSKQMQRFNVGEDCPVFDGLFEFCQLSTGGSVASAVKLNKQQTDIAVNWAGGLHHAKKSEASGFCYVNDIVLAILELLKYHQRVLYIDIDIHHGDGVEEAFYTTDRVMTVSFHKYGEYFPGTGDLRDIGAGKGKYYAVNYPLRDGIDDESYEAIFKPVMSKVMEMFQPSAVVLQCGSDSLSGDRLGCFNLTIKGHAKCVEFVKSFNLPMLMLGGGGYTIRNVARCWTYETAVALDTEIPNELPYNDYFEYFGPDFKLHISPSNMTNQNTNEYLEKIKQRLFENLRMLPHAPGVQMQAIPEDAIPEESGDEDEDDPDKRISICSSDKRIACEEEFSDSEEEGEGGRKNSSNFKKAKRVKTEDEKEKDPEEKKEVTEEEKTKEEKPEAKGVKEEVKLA

| inhibition at 1 µM [1] [%] | inhibition at 1 µM [2] [%] | other results | Structure (SMILES) |
| --- | --- | --- | --- |
| 23 | 97 |  | O=C(NCC1COCCN1C(=O)c1ccccc1)c1ccc(-c2noc(C(F)(F)F)n2)s1 (single isomer, unassigned) [Example 257, (R or S)-N-((4-benzoylmorpholin-3-yl)methyl)-5-(5-(trifluoromethyl)-1,2,4-oxadiazol-3-yl)thiophene-2-carboxamide] |
|  |  | HDAC1 inhibitory rate (%) (1 μM) ([1]; 1 µM): 31%; HDAC6 inhibitory rate (%) (1 μM) ([2]; 1 µM): 96% | O=C(NCC1COCCN1C(=O)c1ccccc1)c1ccc(-c2noc(C(F)(F)F)n2)s1 (single isomer, unassigned) [Example 258, (R or S)-N-((4-benzoylmorpholin-3-yl)methyl)-5-(5-(trifluoromethyl)-1,2,4-oxadiazol-3-yl)thiophene-2-carboxamide] |
| 36 | 97 |  | Cc1nc2ccccn2c1C(=O)N1CCOCC1CNC(=O)c1ccc(-c2noc(C(F)(F)F)n2)cc1 (stereo in doubt) [Example 92, N-(((3S)-4-((2-methylimidazo[1,2-a]pyridin-3-yl)carbonyl)morpholin-3-yl)methyl)-4-(5-(trifluoromethyl)-1,2,4-oxadiazol-3-yl)benzamide] |
| 21 | 95 |  | Cn1nc2c(c1C(=O)N1CCOCC1CNC(=O)c1ccc(-c3noc(C(F)(F)F)n3)cc1)CCCC2 (stereo in doubt) [Example 93, N-(((3S)-4-((2-methyl-4,5,6,7-tetrahydro-2H-indazol-3-yl)carbonyl)morpholin-3-yl)methyl)-4-(5-(trifluoromethyl)-1,2,4-oxadiazol-3-yl)benzamide] |
| 30 | 99 |  | Cc1nocc1C(=O)N1CCOCC1CNC(=O)c1ccc(-c2noc(C(F)(F)F)n2)cc1 (stereo in doubt) [Example 94, N-(((3S)-4-((3-methyl-1,2-oxazol-4-yl)carbonyl)morpholin-3-yl)methyl)-4-(5-(trifluoromethyl)-1,2,4-oxadiazol-3-yl)benzamide] |
| 30 | 99 |  | CC(C)(C(=O)N1CCOCC1CNC(=O)c1ccc(-c2noc(C(F)(F)F)n2)cc1)c1ccccc1 (stereo in doubt) [Example 95, N-(((3S)-4-(2-methyl-2-phenylpropanoyl)morpholin-3-yl)methyl)-4-(5-(trifluoromethyl)-1,2,4-oxadiazol-3-yl)benzamide] |
| 40 | 98 |  | O=C(NCC1COCCN1C(=O)C(F)(F)c1ccccc1)c1ccc(-c2noc(C(F)(F)F)n2)cc1 (stereo in doubt) [Example 96, N-(((3S)-4-(difluoro(phenyl)acetyl)morpholin-3-yl)methyl)-4-(5-(trifluoromethyl)-1,2,4-oxadiazol-3-yl)benzamide] |
|  | 97 |  | O=C(NCC1COCCN1C(=O)c1ccno1)c1ccc(-c2noc(C(F)(F)F)n2)s1 (stereo not drawn) [Example 239, N-((4-(1,2-oxazol-5-ylcarbonyl)morpholin-3-yl)methyl)-5-(5-(trifluoromethyl)-1,2,4-oxadiazol-3-yl)thiophene-2-carboxamide] |
|  | 89 |  | Cc1cc(C(=O)N2CCOCC2CNC(=O)c2ccc(-c3noc(C(F)(F)F)n3)s2)on1 (stereo not drawn) [Example 240, N-((4-((3-methyl-1,2-oxazol-5-yl)carbonyl)morpholin-3-yl)methyl)-5-(5-(trifluoromethyl)-1,2,4-oxadiazol-3-yl)thiophene-2-carboxamide] |
|  | 94 |  | O=C(NCC1COCCN1C(=O)c1cccs1)c1ccc(-c2noc(C(F)(F)F)n2)s1 (stereo not drawn) [Example 241, N-((4-(2-thienylcarbonyl)morpholin-3-yl)methyl)-5-(5-(trifluoromethyl)-1,2,4-oxadiazol-3-yl)thiophene-2-carboxamide] |
|  | 89 |  | Cc1ccc(C(=O)N2CCOCC2CNC(=O)c2ccc(-c3noc(C(F)(F)F)n3)s2)s1 (stereo not drawn) [Example 242, N-((4-((5-methyl-2-thienyl)carbonyl)morpholin-3-yl)methyl)-5-(5-(trifluoromethyl)-1,2,4-oxadiazol-3-yl)thiophene-2-carboxamide] |
|  | 93 |  | Cc1csc(C(=O)N2CCOCC2CNC(=O)c2ccc(-c3noc(C(F)(F)F)n3)s2)c1 (stereo not drawn) [Example 243, N-((4-((4-methyl-2-thienyl)carbonyl)morpholin-3-yl)methyl)-5-(5-(trifluoromethyl)-1,2,4-oxadiazol-3-yl)thiophene-2-carboxamide] |
|  | 96 |  | Cc1ccsc1C(=O)N1CCOCC1CNC(=O)c1ccc(-c2noc(C(F)(F)F)n2)s1 (stereo not drawn) [Example 244, N-((4-((3-methyl-2-thienyl)carbonyl)morpholin-3-yl)methyl)-5-(5-(trifluoromethyl)-1,2,4-oxadiazol-3-yl)thiophene-2-carboxamide] |
|  | 95 |  | O=C(NCC1COCCN1C(=O)Cc1cccs1)c1ccc(-c2noc(C(F)(F)F)n2)s1 (stereo not drawn) [Example 245, N-((4-(2-thienylacetyl)morpholin-3-yl)methyl)-5-(5-(trifluoromethyl)-1,2,4-oxadiazol-3-yl)thiophene-2-carboxamide] |
|  | 83 |  | O=C(NCC1COCCN1C(=O)C1(c2ccccc2)CCCCC1)c1ccc(-c2noc(C(F)(F)F)n2)s1 (stereo not drawn) [Example 249, N-((4-((1-phenylcyclohexyl)carbonyl)morpholin-3-yl)methyl)-5-(5-(trifluoromethyl)-1,2,4-oxadiazol-3-yl)thiophene-2-carboxamide] |
|  | 98 |  | O=C(NCC1COCCN1C(=O)CCc1ccccc1)c1ccc(-c2noc(C(F)(F)F)n2)s1 (stereo not drawn) [Example 250, N-((4-(3-phenylpropanoyl)morpholin-3-yl)methyl)-5-(5-(trifluoromethyl)-1,2,4-oxadiazol-3-yl)thiophene-2-carboxamide] |
|  | 91 |  | O=C(NCC1COCCN1C(=O)c1cccc2c1OCC2)c1ccc(-c2noc(C(F)(F)F)n2)s1 (stereo not drawn) [Example 252, N-((4-(2,3-dihydro-1-benzofuran-7-ylcarbonyl)morpholin-3-yl)methyl)-5-(5-(trifluoromethyl)-1,2,4-oxadiazol-3-yl)thiophene-2-carboxamide] |
|  | 97 |  | O=C(NCC1COCCN1C(=O)C1CC1)c1ccc(-c2noc(C(F)(F)F)n2)s1 (stereo not drawn) [Example 253, N-((4-(cyclopropylcarbonyl)morpholin-3-yl)methyl)-5-(5-(trifluoromethyl)-1,2,4-oxadiazol-3-yl)thiophene-2-carboxamide] |
|  | 93 |  | O=C(NCC1COCCN1C(=O)C1CCOCC1)c1ccc(-c2noc(C(F)(F)F)n2)s1 (stereo not drawn) [Example 255, N-((4-(tetrahydro-2H-pyran-4-ylcarbonyl)morpholin-3-yl)methyl)-5-(5-(trifluoromethyl)-1,2,4-oxadiazol-3-yl)thiophene-2-carboxamide] |
|  | 52 |  | O=C(NCC1COCCN1C(=O)c1ccccc1)c1cc(-c2noc(C(F)(F)F)n2)cs1 (stereo not drawn) [Example 267, N-((4-benzoylmorpholin-3-yl)methyl)-4-(5-(trifluoromethyl)-1,2,4-oxadiazol-3-yl)thiophene-2-carboxamide] |
